# Data published in US8609084B2, “Protection of plants against their pathogenic agents” (Lesaffre et Compagnie, priority 2005, dated 2013).
# System: Venturia inaequalis
# Assay: Efficiency against scab, grafted apple plants in pots
# Assay type: in vivo
# Set-up: Efficiency (%) Leaves treated / Efficiency (%) All leaves / Efficiency (%) New leaves: concentration or dose not given beside the values
# Method: The test was carried out on grafted plants, in pots. Three species were used: ‘Reinette des Capucins’, ‘Jonagold’, and ‘Reinette de Waleffe’, grafted on M9 rootstock. The plants were grown under a plastic tunnel at different times, so that they were all at the same stage at the time of the trial: starting with Reinette de Waleffe, then 15 days later, Reinette des Capucins, then 1 week later, Jonagold.
# The plants were labelled with the variety and the method of treatment received before inoculation.
# The method of treatment, preparation of the inoculum, inoculation and observations are similar to those described in example 1.
# The plants were treated twice, successively, 10 days apart. The day following the second treatment, the last extended leaf ? F1 ? was identified.
# Two days after the second treatment, the pathogen (Venturia inaequalis) was inoculated using a dose of 1.5×10^5 conidia/ml, directly in the moist room. Inoculation is followed by a 48 hours incubation in moist room at 18° C., then the plants remained in the boxes with a temperature of 18°±2° C. and a relative humidity of 80±10%.
# The study was organised as follows:
# The OY2 yeast cell walls correspond to an acqueous suspension at 25 mg/l of the Springcell 8001 product from Biospringer SAS, (Maisons-Alfort), France), with 96% cell walls of dry matter content.
# The observations were made on the 21st day after the inoculation of the last 2 treated leaves (F2 and F1) and on the leaf newly formed after treatment (F0) for about 25 leaves per subject.
# An observation at 41 days after the treatment gave the following results.
# At this time, new leaves had extended: F-1 and F-2, and the disease progressed by natural contamination, without any re-inoculation.
# [1] = All varieties, 21st day after inoculation
# [2] = All varieties, 41 days after the treatment
# [3] = Capucins, 21st day after inoculation
# [4] = Capucins, 41 days after the treatment
# [5] = Jonagold, 21st day after inoculation
# [6] = Jonagold, 41 days after the treatment
# [7] = Waleffe, 21st day after inoculation
# [8] = Waleffe, 41 days after the treatment
smiles,measurement,setting,value
"CC(N)CC(=O)O (stereo not drawn) [baba, β-aminobutyric acid]",Efficiency (%) All leaves,[1],47.2%
same,Efficiency (%) F0,[1],27.0%
same,Efficiency (%) F1,[1],47.1%
same,Efficiency (%) F2,[1],67.6%
same,Efficiency (%) Leaves treated,[1],57.4%
same,Sporulant surface/leaf (%) F0,[1],13.0%
same,Sporulant surface/leaf (%) F1,[1],15.4%
same,Sporulant surface/leaf (%) F2,[1],9.6%
same,Efficiency (%) All leaves,[2],54.2%
same,Efficiency (%) New leaves,[2],40.1%
same,Efficiency (%) Treated leaves,[2],68.1%
same,Sporulant surface/leaf (%) F0,[2],31.0%
same,Sporulant surface/leaf (%) F1,[2],26.7%
same,Sporulant surface/leaf (%) F2,[2],10.0%
same,Sporulant surface/leaf (%) F-1,[2],28.2%
same,Sporulant surface/leaf (%) F-2,[2],8.6%
same,Efficiency (%) All leaves,[3],60.3%
same,Efficiency (%) F0,[3],45.3%
same,Efficiency (%) F1,[3],59.8%
same,Efficiency (%) F2,[3],75.8%
same,Efficiency (%) Leaves treated,[3],67.8%
same,Sporulant surface/leaf (%) F0,[3],4.3%
same,Sporulant surface/leaf (%) F1,[3],8.0%
same,Sporulant surface/leaf (%) F2,[3],4.2%
same,Efficiency (%) All leaves,[4],77.1%
same,Efficiency (%) New leaves,[4],55.5%
same,Efficiency (%) Treated leaves,[4],88.2%
same,Sporulant surface/leaf (%) F0,[4],14.07%
same,Sporulant surface/leaf (%) F1,[4],10.62%
same,Sporulant surface/leaf (%) F2,[4],4.00%
same,Sporulant surface/leaf (%) F-1,[4],9.95%
same,Sporulant surface/leaf (%) F-2,[4],4.00%
same,Efficiency (%) All leaves,[5],57.9%
same,Efficiency (%) F0,[5],38.0%
same,Efficiency (%) F1,[5],50.5%
same,Efficiency (%) F2,[5],85.1%
same,Efficiency (%) Leaves treated,[5],67.8%
same,Sporulant surface/leaf (%) F0,[5],13.9%
same,Sporulant surface/leaf (%) F1,[5],17.9%
same,Sporulant surface/leaf (%) F2,[5],6.0%
same,Efficiency (%) All leaves,[6],57.7%
same,Efficiency (%) New leaves,[6],49.0%
same,Efficiency (%) Treated leaves,[6],67.8%
same,Sporulant surface/leaf (%) F0,[6],37.79%
same,Sporulant surface/leaf (%) F1,[6],27.57%
same,Sporulant surface/leaf (%) F2,[6],10.57%
same,Sporulant surface/leaf (%) F-1,[6],29.57%
same,Sporulant surface/leaf (%) F-2,[6],3.43%
same,Efficiency (%) All leaves,[7],28.6%
same,Efficiency (%) F0,[7],10.3%
same,Efficiency (%) F1,[7],35.2%
same,Efficiency (%) F2,[7],40.3%
same,Efficiency (%) Leaves treated,[7],37.8%
same,Sporulant surface/leaf (%) F0,[7],20.9%
same,Sporulant surface/leaf (%) F1,[7],20.4%
same,Sporulant surface/leaf (%) F2,[7],18.6%
same,Efficiency (%) All leaves,[8],33.0%
same,Efficiency (%) New leaves,[8],24.0%
same,Efficiency (%) Treated leaves,[8],44.8%
same,Sporulant surface/leaf (%) F0,[8],41.05%
same,Sporulant surface/leaf (%) F1,[8],42.00%
same,Sporulant surface/leaf (%) F2,[8],15.55%
same,Sporulant surface/leaf (%) F-1,[8],45.16%
same,Sporulant surface/leaf (%) F-2,[8],18.42%
